Counter-ions that a name gives are not always drawn.

The target of the first experiment is p70S6K (h) (Homo sapiens, UniProt P23443). The experiment in a line: Determination of p70S6 inhibitory activity (radiometric 33P-ATP filter assay). It counts as biochemical. To be noted: 40 min at room temperature, read-out: IC50 against P70S6 kinase. Here is the method: The ability of compounds of the invention to inhibit P70S6 kinase was determined using the protocol below.
Chain of p70S6K (h) (P23443 whole entry): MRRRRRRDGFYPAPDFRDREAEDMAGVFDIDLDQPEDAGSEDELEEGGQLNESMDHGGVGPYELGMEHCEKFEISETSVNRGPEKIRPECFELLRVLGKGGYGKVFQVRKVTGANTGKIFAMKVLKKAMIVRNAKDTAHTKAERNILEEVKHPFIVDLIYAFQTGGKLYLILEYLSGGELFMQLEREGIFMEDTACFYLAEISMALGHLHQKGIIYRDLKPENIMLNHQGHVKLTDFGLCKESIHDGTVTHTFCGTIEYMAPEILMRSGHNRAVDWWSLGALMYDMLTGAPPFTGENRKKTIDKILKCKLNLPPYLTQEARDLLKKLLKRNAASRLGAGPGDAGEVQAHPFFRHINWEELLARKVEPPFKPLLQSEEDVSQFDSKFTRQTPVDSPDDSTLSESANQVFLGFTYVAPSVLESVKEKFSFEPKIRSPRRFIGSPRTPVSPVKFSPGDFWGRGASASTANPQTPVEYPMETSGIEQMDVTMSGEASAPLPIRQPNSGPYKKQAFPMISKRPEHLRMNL
• 20 mM MOPS, 1 mM EDTA, 0.01% Brij-35, 5% Glycerol, 0.1% b-mercaptoethanol, 1 mg/mL BSA Method: • p70S6K (h)
In a final reaction volume of 25 μL, p70S6K (h) (5-10 mU) is incubated with 8 mM MOPS pH 7.0, 0.2 mM EDTA, 100 μM KKRNRTLTV, 10 mM Mg acetate and [γ-33P-ATP] (specific activity approx. 500 cpm/pmol, concentration as required). The reaction is initiated by the addition of the MgATP mix. After incubation for 40 minutes at room temperature, the reaction is stopped by the addition of 5 μL of a 3% phosphoric acid solution. 10 μL of the reaction mixture is then spotted onto a P30 filtermat and washed three times for 5 minutes in 75 mM phosphoric acid and once in methanol prior to drying and scintillation counting.
As for `CN(Cc1ccccc1)c1nnc2cc(-c3cn[nH]c3)ccc2n1` [Example 35, Benzyl-methyl-[7-(1H-pyrazol-4-yl)-benzo[1,2,4]triazin-3-yl]-amine], the IC50 was < 100 nM.
For `CN(Cc1ccccc1)c1cnc2cc(-c3cncnc3)ccc2n1` [Example 43, Benzyl-methyl-(6-pyrimidin-5-yl-quinoxalin-2-yl)-amine], the IC50 was < 100 nM.
Consider `Clc1ccccc1CNc1cnc2cc(-c3cn[nH]c3)ccc2n1` [Example 10, (2-Chloro-benzyl)-[6-(1H-pyrazol-4-yl)-quinoxalin-2-yl]-amine], for which the IC50 was < 1000 nM.
Same read-out and setting: under `[O-][n+]1nc(NCc2ccc(Cl)cc2)nc2ccc(-c3cn[nH]c3)cc21` [Example 62, (4-Chloro-benzyl)-[1-oxy-7-(1H-pyrazol-4-yl)-benzo[1,2,4]triazin-3-yl]-amine] stands < 1000 nM; under `COc1cccc(CNc2nc3ccc(-c4cn[nH]c4)cc3[n+]([O-])n2)c1` [Example 36, (3-Methoxy-benzyl)-[1-oxy-7-(1H-pyrazol-4-yl)-benzo[1,2,4]triazin-3-yl]-amine], < 100 nM.
`Fc1ccc(CNc2cnc3cc(-c4cn[nH]c4)ccc3n2)cc1C(F)(F)F` [Example 20, (4-Fluoro-3-trifluoromethyl-benzyl)-[6-(1H-pyrazol-4-yl)-quinoxalin-2-yl]-amine]: the IC50 is < 1000 nM.
For the compound `c1ccc(CNc2nnc3cc(-c4cn[nH]c4)ccc3n2)cc1` [Example 64, Benzyl-[7-(1H-pyrazol-4-yl)-benzo[1,2,4]triazin-3-yl]-amine], the IC50 was < 1000 nM.
`COc1ccccc1CNc1cnc2cc(-c3cn[nH]c3)ccc2n1` [Example 19, (2-Methoxy-benzyl)-[6-(1H-pyrazol-4-yl)-quinoxalin-2-yl]-amine]: the IC50 was < 1000 nM.
Same read-out and setting: as for `Oc1cccc(CNc2cnc3cc(-c4cn[nH]c4)ccc3n2)c1` [Example 54, 3-{[6-(1H-Pyrazol-4-yl)-quinoxalin-2-ylamino]-methyl}-phenol], the figure is < 100 nM.
On to `C[C@H](Nc1cnc2cc(-c3cn[nH]c3)ccc2n1)c1cccc(F)c1` [Example 59, [(S)-1-(3-Fluoro-phenyl)-ethyl]-[6-(1H-pyrazol-4-yl)-quinoxalin-2-yl]-amine hydrochloride], for which the IC50 is < 5000 nM.
`CN(Cc1ccccc1Cl)c1cnc2cc(-c3cn[nH]c3)ccc2n1` [Example 45, (2-Chloro-benzyl)-methyl-[6-(1H-pyrazol-4-yl)-quinoxalin-2-yl]-amine hydrochloride]: the IC50 was < 1000 nM.
For `c1cc(CNc2cnc3cc(-c4cn[nH]c4)ccc3n2)ccn1` [Example 14, [6-(1H-Pyrazol-4-yl)-quinoxalin-2-yl]-pyridin-4-ylmethyl-amine hydrochloride], the IC50 is < 5000 nM.
Same read-out and setting: as for `CN1CCN(c2cccc(CN(C)c3cnc4cc(-c5cn[nH]c5)ccc4n3)c2)CC1` [Example 48, Methyl-[3-(4-methyl-piperazin-1-yl)-benzyl]-[6-(1H-pyrazol-4-yl)-quinoxalin-2-yl]-amine], the figure is < 100 nM; as for `c1ccc2cc(CNc3cnc4cc(-c5cn[nH]c5)ccc4n3)ccc2c1` [Example 39, Naphthalen-2-ylmethyl-[6-(1H-pyrazol-4-yl)-quinoxalin-2-yl]-amine hydrochloride], < 1000 nM; as for `c1cncc(CNc2cnc3cc(-c4cn[nH]c4)ccc3n2)c1` [Example 15, [6-(1H-Pyrazol-4-yl)-quinoxalin-2-yl]-pyridin-3-ylmethyl-amine hydrochloride], < 1000 nM.
As for `[O-][n+]1nc(NCc2cccc(Cl)c2)nc2ccc(-c3cn[nH]c3)cc21` [Example 63, (3-Chloro-benzyl)-[1-oxy-7-(1H-pyrazol-4-yl)-benzo[1,2,4]triazin-3-yl]-amine], the IC50 is < 1000 nM.
On the same count and under the same terms, as for `COc1cccc(CNc2nnc3cc(-c4cn[nH]c4)ccc3n2)c1` [Example 37, (3-Methoxy-benzyl)-[7-(1H-pyrazol-4-yl)-benzo[1,2,4]triazin-3-yl]-amine], the figure is < 1000 nM.
`C[C@H](c1ccccc1)N(C)c1cnc2cc(-c3cn[nH]c3)ccc2n1` [Example 51, Methyl-((R)-1-phenyl-ethyl)-[6-(1H-pyrazol-4-yl)-quinoxalin-2-yl]-amine]: the IC50 was < 100 nM.
Consider `FC(F)(F)c1ccc(CNc2cnc3cc(-c4cn[nH]c4)ccc3n2)cc1` [Example 40, [6-(1H-Pyrazol-4-yl)-quinoxalin-2-yl]-(4-trifluoromethyl-benzyl)-amine], for which the IC50 was < 1000 nM.
Still for that read-out and setting: under `FC(F)(F)Oc1cccc(CNc2cnc3cc(-c4cn[nH]c4)ccc3n2)c1` [Example 30, [6-(1H-Pyrazol-4-yl)-quinoxalin-2-yl]-(3-trifluoromethoxy-benzyl)-amine] stands < 1000 nM; under `C[C@@H](c1ccccc1)N(C)c1cnc2cc(-c3cn[nH]c3)ccc2n1` [Example 57, Methyl-((S)-1-phenyl-ethyl)-[6-(1H-pyrazol-4-yl)-quinoxalin-2-yl]-amine], < 1000 nM.
Take `c1ccc(CNc2cnc3cc(-c4cn[nH]c4)ccc3n2)nc1` [Example 16, [6-(1H-Pyrazol-4-yl)-quinoxalin-2-yl]-pyridin-2-ylmethyl-amine hydrochloride]: the concentration for half-maximal inhibition (IC50) is < 5000 nM.
With `C[C@H](Nc1cnc2cc(-c3cn[nH]c3)ccc2n1)c1ccccc1` [Example 24, ((S)-1-Phenyl-ethyl)-[6-(1H-pyrazol-4-yl)-quinoxalin-2-yl]-amine hydrochloride], the IC50 is < 5000 nM.
As for `COc1cccc([C@@H](C)N(C)c2cnc3cc(-c4cn[nH]c4)ccc3n2)c1` [Example 53, [(R)-1-(3-Methoxy-phenyl)-ethyl]-methyl-[6-(1H-pyrazol-4-yl)-quinoxalin-2-yl]-amine hydrochloride], the IC50 was < 100 nM.
Same read-out and setting: as for `CN(Cc1ccccc1)c1nc2ccc(-c3cn[nH]c3)cc2[n+]([O-])n1` [Example 34, Benzyl-methyl-[1-oxy-7-(1H-pyrazol-4-yl)-benzo[1,2,4]triazin-3-yl]-amine], the figure is < 100 nM; as for `CN(Cc1ccccc1)c1cnc2cc(-c3ccncc3)ccc2n1` [Example 22, Benzyl-methyl-(6-pyridin-4-yl-quinoxalin-2-yl)-amine], < 1000 nM; as for `CN(Cc1ccccc1)c1cnc2cc(-c3ccncn3)ccc2n1` [Example 23, Benzyl-methyl-(6-pyrimidin-4-yl-quinoxalin-2-yl)-amine], < 1000 nM.
Turning to `[O-][n+]1nc(NCc2ccccc2)nc2ccc(-c3cn[nH]c3)cc21` [Example 61, Benzyl-[1-oxy-7-(1H-pyrazol-4-yl)-benzo[1,2,4]triazin-3-yl]-amine], the IC50 was < 1000 nM.
For `C[C@@H](Nc1cnc2cc(-c3cn[nH]c3)ccc2n1)c1cccc(Cl)c1` [Example 55, [(R)-1-(3-Chloro-phenyl)-ethyl]-[6-(1H-pyrazol-4-yl)-quinoxalin-2-yl]-amine hydrochloride], the IC50 is < 100 nM.
Consider `[O-][n+]1cc(NCc2ccccc2)nc2ccc(-c3cn[nH]c3)cc21` [Example 65C, benzyl-[4-oxy-6-(1H-pyrazol-4-yl)-quinoxalin-2-yl]-amine], for which the IC50 was < 1000 nM.
On the same count and under the same terms, under `CN(Cc1ccc(F)c(C(F)(F)F)c1)c1cnc2cc(-c3cn[nH]c3)ccc2n1` [Example 29, (4-Fluoro-3-trifluoromethyl-benzyl)-methyl-[6-(1H-pyrazol-4-yl)-quinoxalin-2-yl]-amine] stands < 1000 nM; under `Cc1ccc(CNc2cnc3cc(-c4cn[nH]c4)ccc3n2)cc1` [Example 44, (4-Methyl-benzyl)-[6-(1H-pyrazol-4-yl)-quinoxalin-2-yl]-amine], < 100 nM.

The subject of the next experiment is phosphorylation of S6 Ser235/236 in MCF-7 cells. The experiment can be described thus: Inhibition of P70S6K activity in whole cells: phospho-S6 ELISA in MCF-7 cells. It counts as cell-based. To be noted: Homo sapiens, MCF7, 2 h incubation, 1% FBS. Here is the method: The following assay provides IC50 values for inhibition of P70S6K activity in a whole cell assay by determining effects on the phosphorylation of S6^Ser235/236 in MCF-7 cells by ELISA.
The following protocol was used: • 1) MCF-7 cells were seeded in 96-well plates at a density of 7×10^3 cells per well and allowed to adhere for 6 h in media containing 10% FBS. • 2) The full serum media was replaced and cells incubated overnight in media containing 1% FBS, prior to addition of test compounds. • 3) Test compounds were prepared from 10 mM or 5 mM (BEZ-235) DMSO stocks to give final concentration ranges as indicated on graphs. DMSO was constant at a final concentration of 1%. • 4) Test compounds were incubated with cells in duplicate for 2 h at 37° C./5% CO2 in a humidified atmosphere. • 5) The media was removed and cells were lysed by freeze-thawing in cell lysis buffer. • 6) Detection of phosphorylated S6Ser235/236 was then carried out using a PathScan ELISA kit (Cell Signaling Technology #7205). • 7) Lysates were diluted 1:1 with sample diluent before being applied to wells coated with an antibody against phosphorylated-S6 protein. • 8) The ELISA was then performed as stated in the manufacturers' instructions. • 9) The raw data were normalised to control values and analysed using a 4-parameter logistic equation in GraphPad Prism.
`CN(Cc1ccccc1)c1cnc2cc(-c3cncnc3)ccc2n1` [Example 43, Benzyl-methyl-(6-pyrimidin-5-yl-quinoxalin-2-yl)-amine]: the IC50 is < 20000 nM.
With `Cc1cccc([C@@H](C)Nc2cnc3cc(-c4cn[nH]c4)ccc3n2)c1` [Example 58, [6-(1H-Pyrazol-4-yl)-quinoxalin-2-yl]-((R)-1-m-tolyl-ethyl)-amine hydrochloride], the IC50 is < 1000 nM.
Consider `Oc1cccc(CNc2cnc3cc(-c4cn[nH]c4)ccc3n2)c1` [Example 54, 3-{[6-(1H-Pyrazol-4-yl)-quinoxalin-2-ylamino]-methyl}-phenol], for which the IC50 was < 5000 nM.
On the same count and under the same terms, as for `C[C@H](Nc1cnc2cc(-c3cn[nH]c3)ccc2n1)c1cccc(F)c1` [Example 59, [(S)-1-(3-Fluoro-phenyl)-ethyl]-[6-(1H-pyrazol-4-yl)-quinoxalin-2-yl]-amine hydrochloride], the figure is < 20000 nM; as for `C[C@H](c1ccccc1)N(C)c1cnc2cc(-c3cn[nH]c3)ccc2n1` [Example 51, Methyl-((R)-1-phenyl-ethyl)-[6-(1H-pyrazol-4-yl)-quinoxalin-2-yl]-amine], < 5000 nM.
On to `C[C@H](c1cccc(Cl)c1)N(C)c1cnc2cc(-c3cn[nH]c3)ccc2n1` [Example 56, [(R)-1-(3-Chloro-phenyl)-ethyl]-methyl-[6-(1H-pyrazol-4-yl)-quinoxalin-2-yl]-amine], for which the IC50 was < 5000 nM.
For `COc1cccc([C@@H](C)N(C)c2cnc3cc(-c4cn[nH]c4)ccc3n2)c1` [Example 53, [(R)-1-(3-Methoxy-phenyl)-ethyl]-methyl-[6-(1H-pyrazol-4-yl)-quinoxalin-2-yl]-amine hydrochloride], the IC50 was < 1000 nM.
Turning to `C[C@@H](Nc1cnc2cc(-c3cn[nH]c3)ccc2n1)c1cccc(Cl)c1` [Example 55, [(R)-1-(3-Chloro-phenyl)-ethyl]-[6-(1H-pyrazol-4-yl)-quinoxalin-2-yl]-amine hydrochloride], the IC50 is < 1000 nM.

One may read the IC50 as the concentration at which inhibition is half-maximal.
